The values below come from PMC3469417, “Loss of Slc4a1b Chloride/Bicarbonate Exchanger Function Protects Mechanosensory Hair Cells from Aminoglycoside Damage in the Zebrafish Mutant persephone” (PLoS Genetics, 2012).

Experiment [1] addresses T1, zebrafish Slc4a1b (zSlc4a1b) (Danio rerio, UniProt D1FTM8).
T1 construct: cRNA expressed in Xenopus laevis oocytes
T1 sequence (D1FTM8 61-851): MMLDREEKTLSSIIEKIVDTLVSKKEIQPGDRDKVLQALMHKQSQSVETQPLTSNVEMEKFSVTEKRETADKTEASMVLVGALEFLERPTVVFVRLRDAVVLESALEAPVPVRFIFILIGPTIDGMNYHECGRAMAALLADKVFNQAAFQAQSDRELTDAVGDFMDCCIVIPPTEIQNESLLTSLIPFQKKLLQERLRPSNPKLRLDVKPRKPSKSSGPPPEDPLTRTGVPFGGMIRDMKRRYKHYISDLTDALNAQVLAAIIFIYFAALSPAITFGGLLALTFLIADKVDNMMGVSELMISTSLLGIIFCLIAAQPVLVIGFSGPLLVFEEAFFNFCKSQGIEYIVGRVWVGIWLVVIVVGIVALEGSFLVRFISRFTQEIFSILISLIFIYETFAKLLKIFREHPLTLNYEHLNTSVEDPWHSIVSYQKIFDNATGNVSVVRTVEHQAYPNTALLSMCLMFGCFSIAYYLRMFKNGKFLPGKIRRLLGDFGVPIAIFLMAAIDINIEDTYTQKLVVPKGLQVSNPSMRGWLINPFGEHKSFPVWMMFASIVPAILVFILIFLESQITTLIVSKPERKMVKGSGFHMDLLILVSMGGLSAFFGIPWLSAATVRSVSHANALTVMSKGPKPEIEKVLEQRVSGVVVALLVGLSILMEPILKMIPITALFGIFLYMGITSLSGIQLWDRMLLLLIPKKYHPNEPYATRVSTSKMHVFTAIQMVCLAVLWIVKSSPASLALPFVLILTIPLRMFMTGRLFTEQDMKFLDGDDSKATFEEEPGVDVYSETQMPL
The experiment can be described thus: […]- influx in Xenopus oocytes. The note with it: 200 µM DIDS; inhibitor; bath Cl- 103.6 mM, pH 7.4; disodium salt. The experiment is classed as cell-based.

In a further experiment the target is T2, human SLC4A1 (hSlc4a1) (Homo sapiens, UniProt P02730).
T2 construct: expressed in Xenopus laevis oocytes
T2 sequence (P02730 1-911): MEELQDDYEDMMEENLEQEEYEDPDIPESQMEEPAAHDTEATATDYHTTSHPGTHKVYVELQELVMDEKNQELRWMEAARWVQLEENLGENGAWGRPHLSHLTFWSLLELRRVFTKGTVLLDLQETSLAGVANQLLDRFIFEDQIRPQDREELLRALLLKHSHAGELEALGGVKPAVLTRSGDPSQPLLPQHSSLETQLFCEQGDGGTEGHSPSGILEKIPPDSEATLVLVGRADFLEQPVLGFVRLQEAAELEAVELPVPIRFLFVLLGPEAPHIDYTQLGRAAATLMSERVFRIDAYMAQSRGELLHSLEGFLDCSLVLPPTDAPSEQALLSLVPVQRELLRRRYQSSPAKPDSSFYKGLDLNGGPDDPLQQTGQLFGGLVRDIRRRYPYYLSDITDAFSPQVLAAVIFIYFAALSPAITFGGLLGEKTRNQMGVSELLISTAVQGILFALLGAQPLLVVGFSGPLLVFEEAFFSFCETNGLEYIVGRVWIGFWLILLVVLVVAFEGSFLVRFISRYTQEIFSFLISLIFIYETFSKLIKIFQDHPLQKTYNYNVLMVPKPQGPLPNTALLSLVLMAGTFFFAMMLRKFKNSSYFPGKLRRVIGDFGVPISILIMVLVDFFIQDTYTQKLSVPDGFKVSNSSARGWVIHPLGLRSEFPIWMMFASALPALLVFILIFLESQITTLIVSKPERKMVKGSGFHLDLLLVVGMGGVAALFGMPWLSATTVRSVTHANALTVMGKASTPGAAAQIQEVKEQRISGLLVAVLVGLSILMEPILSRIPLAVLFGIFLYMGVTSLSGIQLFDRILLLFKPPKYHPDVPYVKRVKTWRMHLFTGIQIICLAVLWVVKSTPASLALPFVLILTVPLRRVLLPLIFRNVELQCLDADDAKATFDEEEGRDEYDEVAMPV
The experiment can be described thus: […]- influx in Xenopus oocytes. The note with it: 200 µM DIDS; inhibitor; bath Cl- 103.6 mM, pH 7.4; disodium salt. The experiment is classed as cell-based.

`O=S(=O)(O)c1cc(N=C=S)ccc1/C=C/c1ccc(N=C=S)cc1S(=O)(=O)O` [DIDS, 4,4′-diisothiocyano-2,2′-stilbenedisulfonic acid]: the “36Cl- influx in Xenopus oocytes” value is “zebrafish Slc4a1b and by human SLC4A1 was abolished by treatment with the disulfonic stilbene DIDS” in experiment [1]; “zebrafish Slc4a1b and by human SLC4A1 was abolished by treatment with the disulfonic stilbene DIDS” on human SLC4A1 (hSlc4a1).
